Laboratory results: patent US20220117929A1, “METHOD FOR PREVENTING OR TREATING HIGH-GRADE SEROUS CARCINOMA” (Buddhist Tzu Chi Medical Foundation, priority 2020, published 2022)
Converted amounts (≈) assume the structure as drawn. Like-named read-outs stand apart in the source and are kept apart here.

Columns and labels:
ordinary kuramochi cells = assay: XTT cell viability assay, ordinary kuramochi cells; type: cell-based; conditions: Homo sapiens
Method: Kuramochi cells is a high-grade serous ovarian carcinoma (HGSOC) cell line purchased from Japan Cell Bank. Gene expressions of this cell line was previously confirmed to be mimicking HGSOC (Domcke, S.; Sinha, R.; Levine, D. A.; Sander, C.; Schultz, N. Nat. Commun. 2013, 4, 2126). The cell line was maintained in Dulbecco's Modified Eagle Medium (DMEM; Sigma, St. Louis, Mo., USA) supplemented with 10% fetal bovine serum (FBS), 0.1% non-essential amino acids (NEAA), 2 mM L-glutamine, and 1% penicillin-streptomycin. The cells were incubated at 37° C. with 5% CO2.
(§1) The half-maximal inhibitory concentration (IC50) of BP is determined in ALDH^+ and ordinary kuramochi cells. IC50 is determined by assessing the cell viability under different concentration of BP. For example, cell viability was determined by XTT assay (Biological Industries Ltd., Kibbutz Beit Haemek, Israel) following the instruction provided by the manufacturer. […] After 2-5 h of incubation at 37° C., plates were analyzed by spectrophotometry to determine the optical density of the solutions at a wavelength of 450 nm (reference wavelength, 650 nm) to determine viable cell number. […] The equation is expressed as follows: Y=d+(a−d)/(1+(X/c)^B), where Y is the response, and X is the concentration. […]

ALDH^+ kuramochi cells [1] = assay: Boyden chamber (transwell) cell migration assay; type: cell-based, human; conditions: 48 hours, vs untreated cells
Method: For assessment of cell migration, kuramochi cells (5×10^4 cells) were seeded into the top well of a Boyden chamber (24-well transwell) with a pore size of 8 m (Costar, Corning Inc., Corning, N.Y., USA). The cells were allowed to migrate toward the lower well filled with the same culture medium with BP at a concentration of 100 or 200 μg/ml or without BP treatment. After 48 hours of migration, crystal violet (Sigma) was used to stain the migrated cells. The stained cells were counted using a bright-field microscope. Each experiment was repeated three times.

[2] = test system: ALDH^+ kuramochi xenograft; assay: Subcutaneous xenograft tumor growth and histology in NOD-SCID mice; type: in vivo
Method: To investigate tumor growth in vivo, the subcutaneous xenograft model is used widely in the research and allows easy detection of tumor growth and size. Herein, human ovarian cancer xenografts were used to investigate the tumor-inhibiting effect of BP in mice. The animal experiment procedures were approved by the Animal Research and Care Committee of the Buddhist Tzu Chi General Hospital (106-48). All procedures were performed in compliance with the National Institutes Health Guide for the Care and Use of Laboratory Animals. Non-obese, diabetic-severe combined immune deficiency mice (NOD-SCID) (strain NOD.CB17-Prkdcscid/JTcu) purchased from Tzu Chi University were used for these experiments.
ALDH^+ kuramochi cells (1×10^6) were injected subcutaneously into the backs of 4 to 5-week-old female mice. After tumors had grown to a volume of 50 mm^3, mice were separated into two groups (control and treatment groups; n=6 in each group). Controls were treated with vehicle alone (10% dimethyl sulfoxide (DMSO), 20% ethanol in PBS), and the experimental group was treated with different doses of BP (100 or 200 mg/kg) for 5 days. Tumor dimensions (length and width) were measured with calipers, and the tumor volume was determined using the following formula: volume=½ (length×width^2). […] The morphology and cell density were observed and recorded.

ALDH^+ kuramochi cells [3] = assay: Matrigel-coated Boyden chamber invasion assay; type: cell-based, human; conditions: 24 hours, vs untreated cells
Method: For assessment of cell invasion, the invasion assays were carried out in Matrigel-coated Boyden chambers (filter pore size, 8 μM) in 24-well plates (BD). In the top wells, culture medium without serum was seeded with 5×10^4 cells. The bottom wells were added with medium containing 10% FBS and BP (0, 100, or 200 μg/ml). Treatments were added to both upper and lower chambers as indicated. After 24 hours, the free cells were removed gently with a cotton swab. The invading cells were fixed with 4% formaldehyde and Giemsa stained. The slides were air-dried and photographed, and the cells were counted.

ALDH^+ kuramochi cells [4] = assay: XTT viability, BP combined with cisplatin or paclitaxel; type: cell-based, human; conditions: 72 hours
Method: To determine whether BP affects the toxicity of these chemotherapeutic agents, BP was added to cisplatin and paclitaxel treatment of ovarian cancer cells in vitro. ALDH^+ kuramochi cells (2500 ALDH^+ cells/well) in a 96-well plate were treated with BP (25 μg/ml) in combination with cisplatin (0, 5, or 10 μM) or with paclitaxel (0, 10 or 50 nM). Each experiment was conducted in triplicate. Plates were incubated at 37° C. with 5% CO2 for 72 hours. Viable cells were counted by the XTT assay as describe above.

ALDH^+ kuramochi cells [5] = assay: TUNEL apoptosis assay in cultured cells; type: cell-based, human; conditions: BP 200 μg/ml for 48 hours vs no BP, p<0.01
Method: (§2) The level of apoptosis was compared between ALDH^+ kuramochi cells with and without BP treatment using the terminal deoxynucleotidyl transferase dUTP nick end labeling (TUNEL) assay. TUNEL assay was carried out to evaluate cell apoptosis using a TUNEL Assay Kit (Roche, Ind., USA) according to the manufacturer's instructions. Specifically, ALDH^+ kuramochi cells were seeded with 1×10^5 cells in each well of 12-well culture plates. Cultured cells were allowed to attach for 24 hours, and then treated with 200 μg/ml of BP for 48 hours. Adherent tumor cells were fixed in 4% paraformaldehyde. TUNEL probes were used to detect breaks in DNA strands, followed by incubation in a permeabilization solution for 2 min on ice. Cells were washed twice in phosphate buffered saline (PBS) and the TUNEL reaction mixture was added, followed by incubation at 37° C. for 60 min in a humidified atmosphere in the dark. Samples were washed in PBS twice and observed under a fluorescence microscope.

[6] = test system: ALDH^+ kuramochi xenograft; assay: Western blot of caspases in xenograft tumors; type: in vivo, mice; conditions: xenograft treated with BP vs control without BP
Method: (§3) Accordingly, the effect of BP on the apoptotic signaling pathway was further investigated by quantifying the amount of activated caspase proteins by western blot analysis. Specifically, ALDH^+ kuramochi cells were treated with BP (at 100 μg/ml for 48 hours) and lysed. The cell lysates were loaded onto a gradient 5-20% sodium dodecyl sulfate-polyacrylamide gradient gel. After electrophoretic separation, the proteins were transferred to a polyvinylidene difluoride membrane (Bio-Rad). The membrane was blocked at room temperature in a solution of 3% non-fat dry milk in PBS and 0.1% Tween-20 and then rinsed in PBS/0.1% Tween-20. Blots were incubated with diluted solutions of polyclonal anti-caspase 3 and 8, or anti-cleaved caspase 3, 7, 8, or 9 antibodies (1:200, St. John's Lab, London, UK) and treated with 1:5000 diluted anti-rabbit immunoglobulin G horseradish peroxidase (HRP) for staining (Amersham GE, Taipei, Taiwan). Beta-actin and tubulin proteins (Santa Cruz Biotechnology, Santa Cruz, Calif., USA) were used as internal controls. HRP signals were detected using an electrochemiluminescence kit (Promega, Fitchburg, Wis., USA).
(§4) With BP treatment (200 mg/kg), the tumor volumes were smaller than those of control mice treated with the vehicle starting from day 11 to day 26 (p<0.001), as shown in FIG. 7A. […] TUNEL assay was also carried out to evaluate cell viability in the xenograft tumors, using the reagents and procedures as described above but with tumor tissue fixed in formalin and embedded in paraffin and sectioned with a 3 m of thickness. Also, protein levels of cleaved caspase 3, caspase 9, and caspase 7 were examined using western blots as described above to examine apoptotic pathway activation in xenograft tumors.

[7] = test system: ALDH^+ kuramochi xenograft; assay: TUNEL assay of xenograft tumor tissue; type: in vivo, mice; conditions: BP 200 mg/kg, p<0.001
Method: as §2
as §4, with “Also, protein levels of cleaved caspase 3, caspase 9, and caspase 7 were examined using western blots as described above to examine apoptotic pathway activation in xenograft tumors.” left out

ALDH^+ kuramochi cells [8] = assay: XTT cell viability assay, ALDH+ kuramochi cells (cancer stem cells); type: cell-based; conditions: Homo sapiens, 48 h, BP 0-400 μg/ml
Method: To evaluate and characterize the kuramochi cells, the expression of the cancer stem cell (CSC) marker, ALDH, was assessed using flow cytometry. Specifically, fluorescence-activated cell sorting (FACS) was used to isolate ALDH^+ cells from the kuramochi cell line. Then, the Aldefluor assay kit (Stem Cell Technologies, Cambridge, Mass., USA) was used to determine the ALDH activity. The activated Aldefluor reagent was used to trypsinized and incubated with cells for 50 min at 37° C. Cells were incubated with the inhibitor, N,N-diethylaminobenzaldehyde (DEAB), as control cells to identify for ALDH^+ and ALDH^− cell populations. […]
as §1

ALDH^+ kuramochi cells [9] = assay: Western blot of cleaved caspases in cultured cells; type: cell-based, human; conditions: BP 100 μg/ml or 200 μg/ml, 48 hours
Description: as §3, with “Specifically, ALDH^+ kuramochi cells were treated with BP (at 100 μg/ml for 48 hours) and lysed.” left out

Compound: CCCC=C1OC(=O)c2ccccc21 [BP, n-butylidenephthalide]
- IC50 (ordinary kuramochi cells; 48 h of culture, BP 0-240 μg/ml, read-out: IC50 of BP for the ordinary kuramochi cells (figure legend)): 206 µg/mL (≈ 1100 µM)
- IC50 (ordinary kuramochi cells; 48 h of treatment, XTT, 4PL fit, read-out: IC50 of BP for ordinary kuramochi cells): 206 µg/mL (≈ 1100 µM)
- migration of ALDH^+ cells (ALDH^+ kuramochi cells [1]; BP 100 μg/ml, p<0.01): significantly decreased
- migration of ALDH^+ cells (ALDH^+ kuramochi cells [1]; BP 200 μg/ml, p<0.001): significantly decreased
- tumor volumes vs vehicle control ([2]; BP 200 mg/kg for 5 days, day 11 to day 26, p<0.001): smaller
- nuclei of xenograft tumors (H & E staining) vs control ([2]; BP-treated xenograft tumors): denser
- invasion of ALDH^+ cells (ALDH^+ kuramochi cells [3]; BP 100 μg/ml, p<0.01): significantly decreased
- invasion of ALDH^+ cells (ALDH^+ kuramochi cells [3]; BP 200 μg/ml, p<0.001): significantly decreased
- cell viability with cisplatin plus BP vs cisplatin without BP (ALDH^+ kuramochi cells [4]; BP 25 μg/ml with cisplatin 0, 5 or 10 μM, 5 μM p<0.05, 0 and 10 μM p<0.01): significantly lowered
- numbers of viable cells with paclitaxel plus BP vs paclitaxel without BP (ALDH^+ kuramochi cells [4]; BP 25 μg/ml with zero or low concentration of paclitaxel (0, 10 nM), p<0.01): significantly less
- TUNEL^+ cells (ALDH^+ kuramochi cells [5]): Significantly more
- protein level of caspase 7 in xenograft [6]: increased
- protein level of caspase 9 in xenograft [6]: increased
- protein level of cleaved caspase 3 in xenograft [6]: increased
- TUNEL^+ cells in xenograft tumors [7]: significantly more
- IC50 (ALDH^+ kuramochi cells [8]): 317 µg/mL (≈ 1690 µM)
- protein level of cleaved caspase 7 (ALDH^+ kuramochi cells [9]): increased
- protein level of cleaved caspase 8 (ALDH^+ kuramochi cells [9]): increased
- protein level of cleaved caspase 9 (ALDH^+ kuramochi cells [9]): increased
- protein level of cleaved caspase 3 (ALDH^+ kuramochi cells [9]; p<0.001): increased
